Source: publication PMC5448077, “Development of an orally available inhibitor of CLK1 for skipping a mutated dystrophin exon in Duchenne muscular dystrophy” (Scientific Reports, 2017)

How the values were obtained:
Assay in all cases: biochemical
TEC = TEC (Homo sapiens, UniProt P42680)
Procedure, shortened: (§1)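 Human kinases phosphorylating kinase-specific synthetic peptides, assayed by mobility shift (MSA) or IMAP fluorescence polarization, in 20 mM HEPES pH 7.5, 0.01% Triton X-100, 2 mM DTT with substrate/ATP-metal. Reactions ran 1 or 5 h at room temperature; activity = P/(P + S) from product and substrate peak heights.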

TNIK = TNIK (Homo sapiens, UniProt Q9UKE5)
Procedure, shortened: as §1

CaMK2γ = target: T1, CaMK2γ (Homo sapiens, UniProt Q13555)
T1 construct: gene CAMK2G
Procedure, shortened: as §1

skMLCK = target: T2, skMLCK (Homo sapiens, UniProt Q9H1R3)
T2 construct: gene MYLK2
Procedure, shortened: as §1

ALK(R1275Q) = ALK(R1275Q) (Homo sapiens, UniProt Q9UM73, R1275Q)
Procedure, shortened: as §1

TYRO3 = TYRO3 (Homo sapiens, UniProt Q06418)
Procedure, shortened: as §1

PGK = target: T3, PGK (Homo sapiens, UniProt Q13976)
T3 construct: gene PRKG1
Procedure, shortened: as §1

BMX = BMX (Homo sapiens, UniProt P51813)
Procedure, shortened: as §1

FGFR3(K650M) = FGFR3(K650M) (Homo sapiens, UniProt P22607, K650M)
Procedure, shortened: as §1

SIK = target: T4, SIK (Homo sapiens, UniProt P57059)
T4 construct: gene SIK1
Procedure, shortened: as §1

PKR = target: T5, PKR (Homo sapiens, UniProt P19525)
T5 construct: gene EIF2AK2
Procedure, shortened: as §1

NEK9 = NEK9 (Homo sapiens, UniProt Q8TD19)
Procedure, shortened: as §1

PEK = target: T6, PEK (Homo sapiens, UniProt Q9NZJ5)
T6 construct: gene EIF2AK3
Procedure, shortened: as §1

CDK2/CycA2 = CDK2/CycA2 (Homo sapiens, UniProt P24941)
Procedure, shortened: as §1

AMPKα1/β1/γ1 = target: T7, AMPKα1/β1/γ1 (Homo sapiens, UniProt Q13131)
T7 construct: gene PRKAA1
Procedure, shortened: as §1

TAOK2 = TAOK2 (Homo sapiens, UniProt Q9UL54)
Procedure, shortened: as §1

JAK3 = JAK3 (Homo sapiens, UniProt P52333)
Procedure, shortened: as §1

SGK = target: T8, SGK (Homo sapiens, UniProt O00141)
T8 construct: gene SGK1
Procedure, shortened: as §1

FGFR4(V550E) = FGFR4(V550E) (Homo sapiens, UniProt P22455, V550E)
Procedure, shortened: as §1

WNK3 = WNK3 (Homo sapiens, UniProt Q9BYP7)
Procedure, shortened: as §1

KDR = KDR (Homo sapiens, UniProt P35968)
Procedure, shortened: as §1

MAP4K2 = MAP4K2 (Homo sapiens, UniProt Q12851)
Procedure, shortened: as §1

Erk5 = target: T9, Erk5 (Homo sapiens, UniProt Q13164)
T9 construct: gene MAPK7
Procedure, shortened: as §1

ROCK1 = ROCK1 (Homo sapiens, UniProt Q13464)
Procedure, shortened: as §1

PKCθ = target: T10, PKCθ (Homo sapiens, UniProt Q04759)
T10 construct: gene PRKCQ
Procedure, shortened: as §1

Erk2 = target: T11, Erk2 (Homo sapiens, UniProt P28482)
T11 construct: gene MAPK1
Procedure, shortened: as §1

PAK1 = PAK1 (Homo sapiens, UniProt Q13153)
Procedure, shortened: as §1

PRKX = PRKX (Homo sapiens, UniProt P51817)
Procedure, shortened: as §1

AurC = target: T12, AurC (Homo sapiens, UniProt Q9UQB9)
T12 construct: gene AURKC
Procedure, shortened: as §1

CDK5/p25 = target: T13, CDK5/p25 (Homo sapiens, UniProt Q00535)
T13 construct: p25
Procedure, shortened: as §1

FYN(isoform b) = target: T14, FYN(isoform b) (Homo sapiens, UniProt P06241)
T14 construct: isoform b
Procedure, shortened: as §1

T13 sequence (Q00535 whole entry): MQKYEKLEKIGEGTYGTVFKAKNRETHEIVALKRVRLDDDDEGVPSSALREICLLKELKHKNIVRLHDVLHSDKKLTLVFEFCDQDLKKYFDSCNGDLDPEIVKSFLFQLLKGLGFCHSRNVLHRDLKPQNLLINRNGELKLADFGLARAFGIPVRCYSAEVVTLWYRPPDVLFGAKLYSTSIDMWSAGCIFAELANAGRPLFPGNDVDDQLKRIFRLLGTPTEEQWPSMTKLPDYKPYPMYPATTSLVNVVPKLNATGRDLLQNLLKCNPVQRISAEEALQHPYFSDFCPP
T13 sequence (Q15078 whole entry partner): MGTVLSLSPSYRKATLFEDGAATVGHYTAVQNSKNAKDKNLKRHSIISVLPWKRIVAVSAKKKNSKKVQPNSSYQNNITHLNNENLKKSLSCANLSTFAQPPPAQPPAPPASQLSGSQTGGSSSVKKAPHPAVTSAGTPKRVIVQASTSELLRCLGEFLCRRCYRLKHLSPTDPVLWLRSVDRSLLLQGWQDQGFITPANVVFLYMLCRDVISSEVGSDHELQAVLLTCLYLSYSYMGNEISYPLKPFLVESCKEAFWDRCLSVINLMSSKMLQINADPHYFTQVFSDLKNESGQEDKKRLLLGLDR
T7 sequence (Q13131 whole entry): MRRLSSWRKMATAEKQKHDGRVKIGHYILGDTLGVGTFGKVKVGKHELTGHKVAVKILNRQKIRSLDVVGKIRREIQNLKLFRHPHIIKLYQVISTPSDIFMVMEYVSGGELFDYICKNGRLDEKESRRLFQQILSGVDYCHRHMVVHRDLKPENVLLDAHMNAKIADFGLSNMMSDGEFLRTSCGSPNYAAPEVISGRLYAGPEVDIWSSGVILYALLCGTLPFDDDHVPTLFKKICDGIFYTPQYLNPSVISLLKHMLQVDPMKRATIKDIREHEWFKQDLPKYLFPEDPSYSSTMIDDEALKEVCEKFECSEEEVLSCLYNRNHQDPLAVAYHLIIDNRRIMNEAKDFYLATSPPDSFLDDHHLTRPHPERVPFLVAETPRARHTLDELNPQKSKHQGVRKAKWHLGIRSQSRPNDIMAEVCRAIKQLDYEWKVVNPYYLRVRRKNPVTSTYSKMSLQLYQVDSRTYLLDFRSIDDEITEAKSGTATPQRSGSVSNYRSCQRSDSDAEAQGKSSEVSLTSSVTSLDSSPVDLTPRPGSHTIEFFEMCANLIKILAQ
T7 sequence (P54619 whole entry partner): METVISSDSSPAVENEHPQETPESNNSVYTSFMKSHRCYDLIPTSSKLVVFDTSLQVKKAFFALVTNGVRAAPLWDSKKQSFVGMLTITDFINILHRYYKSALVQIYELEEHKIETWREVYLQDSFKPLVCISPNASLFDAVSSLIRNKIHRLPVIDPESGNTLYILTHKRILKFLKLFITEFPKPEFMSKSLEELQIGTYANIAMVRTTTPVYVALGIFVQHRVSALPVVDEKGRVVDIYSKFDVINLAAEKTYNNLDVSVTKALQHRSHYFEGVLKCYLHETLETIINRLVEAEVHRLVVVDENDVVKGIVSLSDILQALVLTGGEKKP
T7 sequence (Q9Y478 whole entry partner): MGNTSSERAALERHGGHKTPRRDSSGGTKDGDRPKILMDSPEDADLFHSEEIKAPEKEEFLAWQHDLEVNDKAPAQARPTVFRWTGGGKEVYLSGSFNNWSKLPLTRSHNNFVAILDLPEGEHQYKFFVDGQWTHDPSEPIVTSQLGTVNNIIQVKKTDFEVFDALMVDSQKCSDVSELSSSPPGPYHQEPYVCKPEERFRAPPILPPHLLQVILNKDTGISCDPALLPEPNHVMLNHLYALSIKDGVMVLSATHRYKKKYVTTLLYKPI
T4 sequence (P57059 whole entry): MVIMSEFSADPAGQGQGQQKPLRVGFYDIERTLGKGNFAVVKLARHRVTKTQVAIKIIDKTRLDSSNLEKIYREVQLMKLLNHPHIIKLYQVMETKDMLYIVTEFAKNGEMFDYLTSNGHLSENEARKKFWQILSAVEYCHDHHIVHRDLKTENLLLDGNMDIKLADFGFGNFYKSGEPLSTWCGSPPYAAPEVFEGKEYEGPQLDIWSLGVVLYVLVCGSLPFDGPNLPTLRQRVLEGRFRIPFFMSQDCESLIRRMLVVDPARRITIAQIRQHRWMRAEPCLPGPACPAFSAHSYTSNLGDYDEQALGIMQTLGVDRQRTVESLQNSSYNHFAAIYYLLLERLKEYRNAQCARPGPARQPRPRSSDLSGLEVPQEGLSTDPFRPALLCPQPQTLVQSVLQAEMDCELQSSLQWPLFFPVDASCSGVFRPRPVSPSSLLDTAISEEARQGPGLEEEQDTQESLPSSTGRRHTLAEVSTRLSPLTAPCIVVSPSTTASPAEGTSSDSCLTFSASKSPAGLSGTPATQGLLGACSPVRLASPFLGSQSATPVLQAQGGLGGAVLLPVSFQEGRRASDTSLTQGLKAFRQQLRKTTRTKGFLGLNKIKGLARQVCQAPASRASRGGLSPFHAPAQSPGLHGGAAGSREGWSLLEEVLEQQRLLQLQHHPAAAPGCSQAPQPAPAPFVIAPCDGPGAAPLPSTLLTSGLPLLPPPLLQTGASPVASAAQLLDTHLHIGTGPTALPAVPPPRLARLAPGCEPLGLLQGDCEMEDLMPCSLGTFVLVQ
T8 sequence (O00141 whole entry): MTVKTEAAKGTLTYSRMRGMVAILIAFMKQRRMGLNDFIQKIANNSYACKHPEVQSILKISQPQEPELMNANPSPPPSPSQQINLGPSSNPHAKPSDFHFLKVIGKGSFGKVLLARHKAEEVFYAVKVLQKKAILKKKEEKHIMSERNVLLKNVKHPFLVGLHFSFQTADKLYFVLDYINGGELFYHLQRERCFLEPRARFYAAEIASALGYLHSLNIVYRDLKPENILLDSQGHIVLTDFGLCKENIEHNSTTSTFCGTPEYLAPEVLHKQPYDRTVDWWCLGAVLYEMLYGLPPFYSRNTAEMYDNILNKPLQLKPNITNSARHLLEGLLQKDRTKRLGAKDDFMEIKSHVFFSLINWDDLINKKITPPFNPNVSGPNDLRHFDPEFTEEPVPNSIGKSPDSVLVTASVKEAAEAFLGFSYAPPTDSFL
Chain of TNIK (Q9UKE5 whole entry): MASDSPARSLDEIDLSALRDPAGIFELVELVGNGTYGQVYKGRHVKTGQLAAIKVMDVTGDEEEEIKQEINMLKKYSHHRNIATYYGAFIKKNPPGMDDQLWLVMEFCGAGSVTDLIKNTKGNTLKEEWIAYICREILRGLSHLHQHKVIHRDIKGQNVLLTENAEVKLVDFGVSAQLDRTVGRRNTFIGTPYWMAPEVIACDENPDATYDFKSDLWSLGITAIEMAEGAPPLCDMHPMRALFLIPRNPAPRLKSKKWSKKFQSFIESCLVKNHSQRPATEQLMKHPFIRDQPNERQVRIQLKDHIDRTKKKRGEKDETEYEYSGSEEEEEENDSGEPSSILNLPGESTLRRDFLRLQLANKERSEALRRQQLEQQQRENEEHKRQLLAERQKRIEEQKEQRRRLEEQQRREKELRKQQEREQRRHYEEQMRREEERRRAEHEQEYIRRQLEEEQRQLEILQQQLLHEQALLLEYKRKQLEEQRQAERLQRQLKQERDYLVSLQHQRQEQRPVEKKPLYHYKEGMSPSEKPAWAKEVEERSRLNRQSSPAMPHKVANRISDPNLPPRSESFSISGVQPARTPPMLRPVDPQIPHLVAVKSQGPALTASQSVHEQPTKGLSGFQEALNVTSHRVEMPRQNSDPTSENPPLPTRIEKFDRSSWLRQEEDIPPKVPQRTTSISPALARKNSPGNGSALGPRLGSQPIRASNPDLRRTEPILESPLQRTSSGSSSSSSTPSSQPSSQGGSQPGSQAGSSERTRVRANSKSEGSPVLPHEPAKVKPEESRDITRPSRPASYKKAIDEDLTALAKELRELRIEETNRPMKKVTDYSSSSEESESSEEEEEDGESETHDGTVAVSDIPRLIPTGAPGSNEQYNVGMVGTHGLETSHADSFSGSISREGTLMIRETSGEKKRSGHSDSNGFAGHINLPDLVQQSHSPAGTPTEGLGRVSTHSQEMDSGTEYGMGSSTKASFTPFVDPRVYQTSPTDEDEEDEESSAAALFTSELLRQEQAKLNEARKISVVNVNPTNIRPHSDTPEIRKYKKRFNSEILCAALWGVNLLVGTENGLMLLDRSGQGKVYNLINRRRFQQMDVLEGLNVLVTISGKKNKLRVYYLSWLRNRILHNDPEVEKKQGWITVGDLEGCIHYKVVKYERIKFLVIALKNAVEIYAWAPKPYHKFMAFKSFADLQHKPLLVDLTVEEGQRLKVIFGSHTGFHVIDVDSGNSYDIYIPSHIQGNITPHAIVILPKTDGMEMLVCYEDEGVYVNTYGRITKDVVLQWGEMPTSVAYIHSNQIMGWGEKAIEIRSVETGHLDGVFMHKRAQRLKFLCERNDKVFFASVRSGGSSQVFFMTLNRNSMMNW
T3 sequence (Q13976 whole entry): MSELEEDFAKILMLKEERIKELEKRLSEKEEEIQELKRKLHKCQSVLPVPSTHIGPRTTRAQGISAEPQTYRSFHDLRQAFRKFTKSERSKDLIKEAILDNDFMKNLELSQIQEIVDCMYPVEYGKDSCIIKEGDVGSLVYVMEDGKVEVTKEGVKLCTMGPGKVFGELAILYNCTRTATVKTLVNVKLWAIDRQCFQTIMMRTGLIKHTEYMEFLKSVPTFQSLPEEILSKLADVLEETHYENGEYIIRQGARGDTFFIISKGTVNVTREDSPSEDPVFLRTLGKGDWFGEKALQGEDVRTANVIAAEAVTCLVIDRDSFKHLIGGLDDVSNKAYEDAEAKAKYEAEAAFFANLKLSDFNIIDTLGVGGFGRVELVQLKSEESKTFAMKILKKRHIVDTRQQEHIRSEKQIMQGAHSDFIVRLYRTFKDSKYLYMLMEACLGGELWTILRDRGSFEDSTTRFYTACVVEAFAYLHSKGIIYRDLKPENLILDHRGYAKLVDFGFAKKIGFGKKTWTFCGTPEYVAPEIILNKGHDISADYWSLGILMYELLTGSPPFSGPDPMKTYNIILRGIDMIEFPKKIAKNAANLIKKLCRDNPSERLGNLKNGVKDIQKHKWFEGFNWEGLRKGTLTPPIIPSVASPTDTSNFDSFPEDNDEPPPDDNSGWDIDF

Compound c1cc(-c2ccc3[nH]ncc3c2)ccn1 [TG693, 5-(4-pyridinyl)-1H-indazole] has an inhibition at 1 µM (TEC) of -0.4%, an inhibition at 1 µM (TNIK) of 48.6% and an inhibition at 1 µM (CaMK2γ) of -2.4%. For the same compound, the inhibition at 1 µM (skMLCK) was 0.9%, the inhibition at 1 µM (ALK(R1275Q)) was -7.6% and the inhibition at 1 µM (TYRO3) was 0.3%. The inhibition at 1 µM (PGK) was 11%, the inhibition at 1 µM (BMX) was 4.6% and the inhibition at 1 µM (FGFR3(K650M)) was 7.8%. It also gave an inhibition at 1 µM (SIK) of 3.2%, an inhibition at 1 µM (PKR) of 1.2% and an inhibition at 1 µM (NEK9) of -5.1%. The inhibition at 1 µM (PEK) was 5%, the inhibition at 1 µM (CDK2/CycA2) was 41.4% and the inhibition at 1 µM (AMPKα1/β1/γ1) was -6.5%. It also gave an inhibition at 1 µM (TAOK2) of 2%, an inhibition at 1 µM (JAK3) of 11.6% and an inhibition at 1 µM (SGK) of 5.6%. For the same compound, the inhibition at 1 µM (FGFR4(V550E)) was -4.1%, the inhibition at 1 µM (WNK3) was -4.9% and the inhibition at 1 µM (KDR) was 0.1%. For the same compound, the inhibition at 1 µM (MAP4K2) was 1.9%, the inhibition at 1 µM (Erk5) was 2.2% and the inhibition at 1 µM (ROCK1) was 27.6%. The inhibition at 1 µM (PKCθ) was -12.6%, the inhibition at 1 µM (Erk2) was -5.8% and the inhibition at 1 µM (PAK1) was -3.8%. It also gave an inhibition at 1 µM (PRKX) of 12.2%, an inhibition at 1 µM (AurC) of 2.5% and an inhibition at 1 µM (CDK5/p25) of 21.8%. It also gave an inhibition at 1 µM (FYN(isoform b)) of 0.6%.
